Patent US10350152B2, “Skin whitening composition, and method for screening for materials having skin whitening effect” (AMOREPACIFIC CORPORATION, priority 2015, dated 2019)

How the values were obtained:
Normal human melanocytes = assay: Amount of secretion of exosomes from UVB-irradiated melanocytes (exosome marker CD81, western blot); format: cell-based; conditions: 10 μM, treated for 12 hours before UVB exposure (20 mJ/cm^2), cultured 24 hours
Procedure: Normal human melanocytes (Cascade Biologics, Portland, Oreg., USA) were kept in M-254 medium (Cascade) containing a human melanocyte growth supplement (Cascade). GW4869 (Santa Cruz Biotechnology, Santa Cruz, Calif., USA) and pifithrin-μ (Sigma, St. Louis, Mo., USA) were dissolved in DMSO for use. For isolation of exosomes, confluent melanocytes were washed with PBS and cultured in M-254 for 48 hours. Conditioned medium was collected and centrifuged at 500×g for 10 minutes, 3,000×g for 20 minutes, and 100,000×g for 2 hours. The resultant exosome-containing pellet was resuspended in PBS and stored at −80° C. Also, conditioned medium was purified by filtration through a 0.45 μm pore filter (Millipore, Billerica, Mass., USA) and concentrated using a 100 kDa cut-off spin column (Millipore). Exosomes were isolated using the ExoQuick-TC kit (SBI, San Jose, Calif., USA) according to the manufacturer's instructions. 20 μl of isolated exosomes were analyzed by western blot and silver staining. Cells or isolated exosomes were lysed with lysis buffer (1% NP-40, 0.05 M Tris-HCl, pH 7.5, 0.15 M NaCl, and 0.01 M MgCl2) containing protease inhibitors (Sigma). Protein concentrations were determined using BCA assays, and samples were […] by SDS-PAGE, transferred to a PVDF membrane, and probed with antibodies against CD81 (SBI). […]

melanocytes = assay: Viability of melanocytes cultured with exosomes (crystal violet cytotoxicity test); format: cell-based, human; conditions: exosomes from melanocytes treated with ultraviolet rays together with inhibitor; recipient melanocytes irradiated with UVB 20 mJ/cm^2, cultured 3 days
Procedure: Normal human melanocytes (Cascade Biologics, Portland, Oreg., USA) were kept in M-254 medium (Cascade) containing a human melanocyte growth supplement (Cascade). GW4869 (Santa Cruz Biotechnology, Santa Cruz, Calif., USA) and pifithrin-μ (Sigma, St. Louis, Mo., USA) were dissolved in DMSO for use. Melanocytes were seeded in a 6-well plate at a density of 1×10^4 cells/well. The next day, 10 μl of exosomes isolated from the same number of cells were treated. Cells were fixed with 4% formaldehyde in PBS for 15 minutes, washed with PBS and stained with 0.1% crystal violet for 20 minutes. After washing with PBS, the cells were dried and lysed with 10% acetic acid. The absorbance was measured at 590 nm using a spectrophotometer. Each of the exosomes obtained from UVB-untreated melanocytes, UVB-treated melanocytes, or UVB- and GW4869-treated melanocytes, together with melanocytes, were irradiated with UVB (20 mJ/cm^2), and cultured for 3 days.

Row | SMILES | amount of expression of the exosome marker CD81 (Normal human melanocytes) | effect of exosomes from UVB- and inhibitor-treated melanocytes on viability of ultraviolet-irradiated melanocytes (melanocytes)
1 | Cl.Cl.O=C(/C=C/c1ccc(/C=C/C(=O)Nc2ccc(C3=NCCN3)cc2)cc1)Nc1ccc(C2=NCCN2)cc1 [GW4869] | decreased | reduced effect in the enhancement of the viability of melanocytes
2 | NS(=O)(=O)C#Cc1ccccc1 [pifithrin-μ] | decreased | reduced effect in the enhancement of the viability of melanocytes
